According to ChEMBL document CHEMBL1138209, “Scaffold of the cyclooxygenase-2 (COX-2) inhibitor carprofen provides Alzheimer gamma-secretase modulators” (J Med Chem, 2006):
Calls of active or inactive are those of the source. The calls are words filed in the database; no cut-off is given here.

Assays:
[1] = Inhibition of beta amyloid protein 42 in human H4 cells overexpressing APP695; type: cell-based
[2] = system: H4; assay: Increase in beta amyloid protein 38 in human H4 cells overexpressing APP695 at 40 uM; type: cell-based
[3] = Inhibition of beta amyloid protein 38 in human H4 cells overexpressing APP695; type: cell-based
[4] = Inhibition of beta amyloid protein 40 in human H4 cells overexpressing APP695; type: cell-based
[5] = system: H4; assay: Increase in beta amyloid protein 38 in human H4 cells overexpressing APP695 at 200 uM; type: cell-based
[6] = molecular target: Prostaglandin G/H synthase 1 (Homo sapiens) (UniProt P23219); assay: Activity at COX1 at 10 uM
[7] = system: H4; assay: Increase in beta amyloid protein 38 in human H4 cells overexpressing APP695 at 160 uM; type: cell-based
[8] = system: H4; assay: Increase in beta amyloid protein 38 in human H4 cells overexpressing APP695 at 150 uM; type: cell-based
[9] = system: H4; assay: Cytotoxicity against human H4 cells at 40 uM; type: cell-based; conditions: h4, 40 µM

Sequence of Prostaglandin G/H synthase 1 (Homo sapiens) (P23219 whole entry): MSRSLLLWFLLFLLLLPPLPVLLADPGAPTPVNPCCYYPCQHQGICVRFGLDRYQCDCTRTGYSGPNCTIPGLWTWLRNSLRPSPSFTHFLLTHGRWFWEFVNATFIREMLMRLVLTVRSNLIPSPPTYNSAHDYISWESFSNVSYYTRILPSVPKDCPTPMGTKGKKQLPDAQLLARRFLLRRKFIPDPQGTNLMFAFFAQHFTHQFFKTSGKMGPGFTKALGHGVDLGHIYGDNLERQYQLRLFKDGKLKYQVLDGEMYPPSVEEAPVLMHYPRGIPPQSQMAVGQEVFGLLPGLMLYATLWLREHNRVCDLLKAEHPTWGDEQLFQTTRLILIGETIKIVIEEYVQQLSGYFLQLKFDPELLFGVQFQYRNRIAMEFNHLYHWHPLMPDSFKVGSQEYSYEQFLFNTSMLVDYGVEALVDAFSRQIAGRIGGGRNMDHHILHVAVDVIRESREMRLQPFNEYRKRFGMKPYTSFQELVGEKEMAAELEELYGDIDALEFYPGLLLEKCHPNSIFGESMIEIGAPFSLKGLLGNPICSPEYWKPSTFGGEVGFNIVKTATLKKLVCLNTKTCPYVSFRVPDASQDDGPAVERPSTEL

SMILES	IC50 [1]	IC50 [4]	Activity [2]	also measured
CCCCCCCCCCn1c2ccc(Cl)cc2c2ccc(C(C)C(=O)O)cc21 (configuration not stated)	2.9 µM	> 40 µM	–	EC50 [3]: 5.8 µM; Activity [6]: inactive
COc1cccc(Cn2c3ccc(Cl)cc3c3ccc(C(C)C(=O)O)cc32)c1 (configuration not stated)	39 µM	> 40 µM	inactive	–
CC(C(=O)O)c1ccc2c3cc(Cl)ccc3n(S(=O)(=O)c3cc(Br)c(Br)s3)c2c1 (configuration not stated)	> 40 µM	–	inactive	–
CC(C(=O)O)c1ccc2c(c1)[nH]c1ccc(Cl)cc12 (racemic) [CARPROFEN]	76 µM	133 µM	–	IC50 [3]: 78 µM; Activity [7]: inactive
CCCCCCCCn1c2ccc(Cl)cc2c2ccc(C(C)C(=O)O)cc21 (configuration not stated)	6.9 µM	> 40 µM	inactive	–
CC(C(=O)O)c1ccc2c3cc(Cl)ccc3n(Cc3cccc(OC(F)(F)F)c3)c2c1 (configuration not stated)	7.5 µM	> 40 µM	inactive	–
CCCCCCCCCn1c2ccc(Cl)cc2c2ccc(C(C)C(=O)O)cc21 (configuration not stated)	3 µM	> 40 µM	–	EC50 [3]: 8.1 µM
CC(C(=O)O)c1ccc2c3cc(Cl)ccc3n(Cc3cccc(NC(=O)CCCC[C@@H]4SC[C@@H]5NC(=O)N[C@@H]54)c3)c2c1 (some centres not stated)	88 µM	> 150 µM	–	Activity [8]: inactive; Activity [9]: Toxic
CC(C)c1cc(C(C)C)c(S(=O)(=O)n2c3ccc(Cl)cc3c3ccc(C(C)C(=O)O)cc32)c(C(C)C)c1 (configuration not stated)	8.5 µM	> 20 µM	–	EC50 [3]: 9.3 µM; Activity [9]: Toxic
CC(C(=O)O)c1ccc2c3cc(Cl)ccc3n(S(=O)(=O)c3cc(C(F)(F)F)cc(C(F)(F)F)c3)c2c1 (configuration not stated)	11 µM	> 30 µM	–	Activity [5]: inactive
CCCCCCCCS(=O)(=O)n1c2ccc(Cl)cc2c2ccc(C(C)C(=O)O)cc21 (configuration not stated)	25 µM	> 40 µM	inactive	–
CC(C(=O)O)c1ccc2c3cc(Cl)ccc3n(Cc3cccc([N+](=O)[O-])c3)c2c1 (configuration not stated)	22 µM	> 40 µM	inactive	–

Continued, in another order:

IC50 [1]	IC50 [4]	SMILES	Activity [2]	also measured
37 µM	–	CC(C(=O)O)c1ccc2c3cc(Cl)ccc3n(S(=O)(=O)c3ccc(-c4ccccc4)cc3)c2c1 (configuration not stated)	inactive	–
> 40 µM	–	CC(C(=O)O)c1ccc2c3cc(Cl)ccc3n(S(=O)(=O)c3cc(F)cc(F)c3)c2c1 (configuration not stated)	inactive	–
> 40 µM	–	CC(C(=O)O)c1ccc2c3cc(Cl)ccc3n(S(=O)(=O)c3ccc(Cl)cc3)c2c1 (configuration not stated)	inactive	–
56 µM	> 100 µM	Cc1ccc(S(=O)(=O)n2c3ccc(Cl)cc3c3ccc(C(C)C(=O)O)cc32)cc1 (configuration not stated)	–	EC50 [3]: 43 µM; Activity [5]: inactive
> 40 µM	–	CC(C(=O)O)c1ccc2c3cc(Cl)ccc3n(S(=O)(=O)c3ccc(C#N)cc3)c2c1 (configuration not stated)	inactive	–
> 40 µM	–	CC(C(=O)O)c1ccc2c3cc(Cl)ccc3n(S(=O)(=O)c3cccc(Cl)c3)c2c1 (configuration not stated)	inactive	–
> 40 µM	–	CC(C(=O)O)c1ccc2c3cc(Cl)ccc3n(S(=O)(=O)c3ccc([N+](=O)[O-])cc3)c2c1 (configuration not stated)	inactive	–
> 40 µM	–	CC(C(=O)O)c1ccc2c3cc(Cl)ccc3n(S(=O)(=O)c3cccc(F)c3)c2c1 (configuration not stated)	inactive	–
> 40 µM	–	CC(C(=O)O)c1ccc2c3cc(Cl)ccc3n(S(=O)(=O)c3ccccc3)c2c1 (configuration not stated)	inactive	–
> 40 µM	–	CC(C(=O)O)c1ccc2c3cc(Cl)ccc3n(S(=O)(=O)c3ccc(Br)cc3)c2c1 (configuration not stated)	inactive	–
> 40 µM	> 40 µM	CCCc1ccc(S(=O)(=O)n2c3ccc(Cl)cc3c3ccc(C(C)C(=O)O)cc32)cc1 (configuration not stated)	inactive	–
> 40 µM	–	CC(C(=O)O)c1ccc2c3cc(Cl)ccc3n(S(=O)(=O)c3ccccc3F)c2c1 (configuration not stated)	inactive	–
39 µM	–	CC(C(=O)O)c1ccc2c3cc(Cl)ccc3n(S(=O)(=O)c3cccc([N+](=O)[O-])c3)c2c1 (configuration not stated)	inactive	–
40 µM	–	CC(C(=O)O)c1ccc2c3cc(Cl)ccc3n(S(=O)(=O)c3ccccc3Br)c2c1 (configuration not stated)	inactive	–
> 40 µM	–	CC(C(=O)O)c1ccc2c3cc(Cl)ccc3n(S(=O)(=O)c3ccc(F)cc3)c2c1 (configuration not stated)	inactive	–
